For test [1], the system named is uptake of dopamine by the corpus striatum. Description: inhibition of uptake of labelled dopamine by rat corpus striatum homogenate (procedure of Coyle et al). In kind it is biochemical. The following applies: for Ratio Hypothalmus/Striatum: ratio of ID50 values, hypothalamus over striatum. The protocol: (§1) Many compounds which are active in the central nervous system of mammals appear to inhibit the uptake of catecholamines by mammalian brain tissues. […] The compounds of the invention have the ability of selectively inhibiting the uptake of dopamine by the corpus striatum. This ability was measured by a test procedure following that of Coyle et al supra. Rat brain slices from the corpus striatum and hypothalamus are separately homogenized and incubated with predetermined amounts of labelled norepinephrine or dopamine and a compound of the invention. After a suitable incubation period the amount of labelled catecholamine taken up by the brain homogenate is determined.

Test [2] deals with uptake of norepinephrine by the hypothalamus. Description: inhibition of uptake of labelled norepinephrine by rat hypothalamus homogenate (procedure of Coyle et al). In kind it is biochemical. The protocol: as §1

Each structure is given as a SMILES string. Some results are limits rather than exact numbers.

Data on 5 compounds can be found in patent publication US3954865A, “N-cycloalkyl substituted-10,11-dihydro 5H-dibenzo[a,d] cyclohepten-5-imines” (E. I. Du Pont de Nemours and Company, priority 1974, dated 1976).

For `c1ccc2c(c1)CCc1ccccc1C2=NCC1CC1` [Example 1, N-cyclopropylmethyl-10,11-dihydro-5H-dibenzo[a,d]cyclohepten-5-imine], the “inhibiting the uptake of dopamine, selectivity in words” value in test [1] (dopamine versus norepinephrine uptake) is reported as “almost exclusive effect inhibiting the uptake of dopamine”. Also, in test [1], the “Ratio Hypothalmus/Striatum” value is 20. Besides, the “inhibiting the uptake of norepinephrine, in words” value in test [2] is listed as “without significantly inhibiting the uptake of norepinephrine”.
For the compound `c1ccc2c(c1)CCc1ccccc1C2=NC1CC1` [Example 2, N-Cyclopropyl-10,11-dihydro-5H-dibenzo[a,d]cyclohepten-5-imine], in test [1], the “Ratio Hypothalmus/Striatum” value is on record as over 6.
Same read-out and setting: to `Clc1ccc2c(c1)C(=NCC1CC1)c1ccccc1CC2` [Example 4, 3-Chloro-N-cyclopropylmethyl-10,11-dihydro-5H-dibenzocyclohepten-5-imine] belongs 2.
Still for that read-out and setting: as for `CC(C)=C1CC(CN=C2c3ccccc3CCc3ccccc32)C1` (stereo not shown) [Example 5, N-(3-Isopropylidenecyclobutylmethyl)-10,11-dihydro[a,d]cyclohepten-5-imine], the figure is 1.25; as for `CC(C)N=C1c2ccccc2CCc2ccccc21` [Isopropyl, reference compound], 0.25.
